In patent US20260285879A1, “CDK INHIBITOR AND CRYSTAL FORM OF PHARMACEUTICALLY ACCEPTABLE SALT THEREOF, AND USE THEREOF” (priority 2023, published 2026):
Read-outs that look alike come from different tables or passages of the source.

Key:
Type in all cases: physicochemical
[1] = Long-term stability testing; details: 25° C.±2° C./60%±5% RH
Method: (3) Long-Term Stability Testing
(§1) Packaging: Simulated the commercial packaging (using a pharmaceutical-grade low-density polyethylene bag as the inner packaging and a polyester/aluminum/polyethylene composite bag for pharmaceutical packaging as the outer packaging)
Investigation conditions: 25° C.±2° C./60%±5% RH

[2] = Accelerated stability testing; details: 40° C.±2° C./75%±5% RH
Method: (2) Accelerated Stability Testing
as §1
Investigation conditions: 40° C.±2° C./75%±5% RH

[3] = Competition experiment between anhydrates and solvates and solvent activity experiment
[4] = Dynamic vapor sorption (DVS)
Method: 4. Dynamic Vapor Sorption (DVS)
Instrument: TA Instruments Q5000 SA
Detection method: 20 to 50 mg of the sample was placed in a tared sample basket and automatically weighed, and DVS testing was performed according to the parameters in Table 7: Step Time: 60 min; Equilibration Time per RH %: 1 hour; Total Gas Flow Rate: 200 sccm; Gradient mode: 0%-90%-0% humidity variation, with a humidity variation amount of 10% for each gradient level between 0% and 90%, and gradient endpoint was determined by dm/dt<0.01% maintained for 10 minutes.

[5] = Stability test, placed open 7 days (HPLC purity, XRPD); grinding or crushing; details: for remaining at […]: solid state, open, 7 days, read-out: Purity (Peak area %) 7 days
From the text: Subsequently, the samples after 7 days were respectively detected by HPLC and XRPD to determine their chemical and physical stabilities.

[6] = Stress testing (high temperature, high humidity, illumination); details: for remaining at […] / remaining at 336 h / remaining at 720 h: read-out: Content
[7] = 60° C., 92.5% RH and 40° C./75% RH for 7 days
[8] = High Humidity (92.5% RH), 7 days
[9] = High Humidity (92.5% RH), 14 days
[10] = High Humidity (92.5% RH), 30 days
[11] = High Temperature (60° C.), 7 days
[12] = High Temperature (60° C.), 14 days
[13] = High Temperature (60° C.), 30 days
[14] = Illumination Testing 45001x ± 5001x, 7 days
[15] = Illumination Testing 45001x ± 5001x, 14 days
[16] = Illumination Testing 45001x ± 5001x, 30 days

For `CC(=O)c1c(C)c2cnc(Nc3ccc4c(c3)OC[C@@H]3CN(C5CCN(C)CC5)CCN43)nc2n(C2CCCC2)c1=O` [listing 1 of 4 here], the “Description Appearance” value ([1]; 0 months) was “Yellow”, the Total impurities ([1]; 0 months) was 0.84% and the crystalline form ([1]; 0 months) was “crystalline”. The loss on drying ([1]; 0 months) was 0.03%, the “Description Appearance” value ([1]; 3 months) was “Yellow solid” and the Total impurities ([1]; 3 months) was 0.89%. The crystalline form ([1]; 3 months) was “Unchanged”, the loss on drying ([1]; 3 months) was 0.02% and the “Description Appearance” value ([1]; 6 months) was “Yellow solid”. The Total impurities ([1]; 6 months) was 0.75%, the crystalline form ([1]; 6 months) was “Unchanged” and the loss on drying ([1]; 6 months) was 0.05%. For the same compound, the “Description Appearance” value ([1]; 9 months) was “Yellow solid”, the Total impurities ([1]; 9 months) was 0.73% and the crystalline form ([1]; 9 months) was “Unchanged”. The loss on drying ([1]; 9 months) was 0.05%, the “Description Appearance” value ([1]; 12 months) was “Yellow solid” and the Total impurities ([1]; 12 months) was 0.78%. For the same compound, the crystalline form ([1]; 12 months) was “Unchanged”, the loss on drying ([1]; 12 months) was 0.05% and the “Description Appearance” value ([1]; 18 months) was “Yellow solid”. The Total impurities ([1]; 18 months) was 0.71%, the crystalline form ([1]; 18 months) was “Unchanged” and the loss on drying ([1]; 18 months) was 0.03%. For the same compound, the remaining at 2160 h ([1]; solid, 60% rh storage, 3 months, read-out: Measured content) was 101%, the remaining at 4320 h ([1]; solid, 60% rh storage, 6 months, read-out: Measured content) was 101% and the remaining at 6480 h ([1]; solid, 60% rh storage, 9 months, read-out: Measured content) was 99.6%. The remaining at 8640 h ([1]; solid, 60% rh storage, 12 months, read-out: Measured content) was 101%, the remaining at 12960 h ([1]; solid, 60% rh storage, 18 months, read-out: Measured content) was 98.7% and the “Description Appearance” value ([2]; 0 months) was “Yellow”. For the same compound, the Total impurities ([2]; 0 months) was 0.84%, the crystalline form ([2]; 0 months) was “crystalline” and the loss on drying ([2]; 0 months) was 0.03%. The “Description Appearance” value ([2]; 1 month) was “Yellow”, the Total impurities ([2]; 1 month) was 0.80% and the loss on drying ([2]; 1 month) was 0.04%. For the same compound, the “Description Appearance” value ([2]; 2 months) was “Yellow”, the Total impurities ([2]; 2 months) was 0.82% and the loss on drying ([2]; 2 months) was 0.02%. For the same compound, the “Description Appearance” value ([2]; 3 months) was “Yellow”, the Total impurities ([2]; 3 months) was 0.85% and the crystalline form ([2]; 3 months) was “Unchanged”. The loss on drying ([2]; 3 months) was 0.02%, the “Description Appearance” value ([2]; 6 months) was “Yellow” and the Total impurities ([2]; 6 months) was 0.77%. For the same compound, the crystalline form ([2]; 6 months) was “Unchanged”, the loss on drying ([2]; 6 months) was 0.08% and the remaining at 720 h ([2]; solid, 75% rh storage, 1 month, read-out: Measured content) was 100%. The remaining at 1440 h ([2]; solid, 75% rh storage, 2 months, read-out: Measured content) was 101%, the remaining at 2160 h ([2]; solid, 75% rh storage, 3 months, read-out: Measured content) was 101% and the remaining at 4320 h ([2]; solid, 75% rh storage, 6 months, read-out: Measured content) was 101%.
With `CC(=O)c1c(C)c2cnc(Nc3ccc4c(c3)OC[C@@H]3CN(C5CCN(C)CC5)CCN43)nc2n(C2CCCC2)c1=O` [listing 2 of 4 here] the “Test Results (crystalline form by XRPD)” value ([3]; competition experiment, n-Butanol, room temperature) was “crystalline form A-I” and the “Test Results (crystalline form by XRPD)” value ([3]; competition experiment, n-Butanol/Anisole (v:v = 1:1), room temperature) was “crystalline form A-I”.
For `CC(=O)c1c(C)c2cnc(Nc3ccc4c(c3)OC[C@@H]3CN(C5CCN(C)CC5)CCN43)nc2n(C2CCCC2)c1=O` [listing 3 of 4 here], the “Test Results (crystalline form by XRPD)” value ([3]; solvent activity experiment, 20% Dimethyl sulfoxide (v/v)) was “crystalline form A-I”, the “Test Results (crystalline form by XRPD)” value ([3]; solvent activity experiment, 50% Dimethyl sulfoxide (v/v)) was “crystalline form A-I” and the “Test Results (crystalline form by XRPD)” value ([3]; solvent activity experiment, 80% Dimethyl sulfoxide (v/v)) was “crystalline form A-I”.
For `CC(=O)c1c(C)c2cnc(Nc3ccc4c(c3)OC[C@@H]3CN(C5CCN(C)CC5)CCN43)nc2n(C2CCCC2)c1=O` [listing 4 of 4 here], the “Test Results (crystalline form by XRPD)” value ([3]; solvent activity experiment, 20% Trifluoroethanol (v/v)) was “crystalline form A-I”, the “Test Results (crystalline form by XRPD)” value ([3]; solvent activity experiment, 50% Trifluoroethanol (v/v)) was “crystalline form A-I” and the “Test Results (crystalline form by XRPD)” value ([3]; solvent activity experiment, 80% Trifluoroethanol (v/v)) was “crystalline form A-II”.
In the case of `CC(=O)c1c(C)c2cnc(Nc3ccc4c(c3)OC[C@@H]3CN(C5CCN(C)CC5)CCN43)nc2n(C2CCCC2)c1=O` [crystalline form F], the “XRPD pattern / crystalline form after the DVS test” value ([4]; after DVS test) is reported as “did not change” and the “moisture absorption (DVS)” value ([4]; at 80% RH) is reported as “approximately 3.8%”.
For `CC(=O)c1c(C)c2cnc(Nc3ccc4c(c3)OC[C@@H]3CN(C5CCN(C)CC5)CCN43)nc2n(C2CCCC2)c1=O` [crystalline form A-I], the “Purity (Peak area %) 0 day” value ([5]; 0 day) was 99.16 Peak area %, the “chemical stability (HPLC)” value [5, 7] was “chemically stable” and the “crystalline form by XRPD after 7 days under the three conditions” value [5, 7] was “remained unchanged”. For the same compound, the “crystalline form after grinding or crushing” value ([5]; grinding or crushing) was “remained unchanged”, the remaining at […] ([5]; 40° C./75% RH) was 99.2% and the remaining at […] ([5]; 60° C.) was 99.2%. The remaining at […] ([5]; 92.5% RH) was 99.2%, the “hygroscopicity (DVS)” value ([4]; 0%-90% RH) was “non-hygroscopic” and the “weight change (DVS)” value ([4]; across 0%-90% RH) was “approximately 0.17%”. For the same compound, the “Description Appearance” value ([6]; 0 Day) was “Yellow”, the crystalline form ([6]; 0 Day) was “crystalline” and the “Description Appearance” value [6, 8] was “Yellow”. For the same compound, the remaining at […] [6, 8] was 100%, the “Description Appearance” value [6, 9] was “Yellow” and the remaining at 336 h [6, 9] was 99.6%. The “Description Appearance” value [6, 10] was “Yellow”, the remaining at 720 h [6, 10] was 101% and the “Description Appearance” value [6, 11] was “Yellow”. The remaining at […] [6, 11] was 100%, the “Description Appearance” value [6, 12] was “Yellow” and the remaining at 336 h [6, 12] was 101%. The “Description Appearance” value [6, 13] was “Yellow”, the remaining at 720 h [6, 13] was 100% and the “Description Appearance” value [6, 14] was “Yellow”. The Total impurities [6, 14] was 0.76%, the loss on drying [6, 14] was 0.07% and the remaining at […] [6, 14] was 101%. The “Description Appearance” value [6, 15] was “Yellow”, the Total impurities [6, 15] was 0.79% and the loss on drying [6, 15] was 0.06%. For the same compound, the remaining at 336 h [6, 15] was 100%, the “Description Appearance” value [6, 16] was “Yellow” and the Total impurities [6, 16] was 0.84%. The crystalline form [6, 16] was “Unchanged”, the loss on drying [6, 16] was 0.07% and the remaining at 720 h [6, 16] was 100%. For the same compound, the “change in the description” value ([6]; all stress test conditions) was “no significant change”, the “change in the hygroscopic weight gain” value ([6]; high-humidity conditions) was “no significant change” and the “relevant substances compared with 0 month” value ([6]; high-humidity conditions) was “remained unchanged”. For the same compound, the “change in relevant substances” value ([6]; high-temperature conditions) was “no significant change”.
